Results taken from paper PMC4747340, “A new class of small molecule estrogen receptor-alpha antagonists that overcome anti-estrogen resistance” (Oncotarget, 2015).
Where a name gives a salt, the structure may show the parent alone. Read-outs that look alike come from different tables or passages of the source.

Legend:
[1] = MTT assay of cell viability; format: cell-based; details: human, MCF-7 cells, 24-hr exposure, relative to untreated control
Experimental: Figure 3 Cytotoxicity and specificity of compounds A., B. Subconfluent proliferating cells were incubated with the indicated compound at the indicated concentration for 24-hr and then harvested for MTT dye reduction assays. Cell viability values (relative to untreated control cells) are means ± SEMs of 10 replicate wells. C., D. Subconfuent proliferating T47D cells were transfected overnight with the MMTV-Luc reporter (0.25 μg per well in 24-well dishes), washed, and allowed to recover for several hr in fresh medium. The cells were then treated with a synthetic progestin (R5020, 10 nM) plus the indicated compound at the indicated concentration for 24 hr and then harvested for luciferase assays. Luciferase activity is expressed relative to the MMTV-Luc control (no agents added) (panel A) or as a percentage of the +R5020 positive control (panel B). Values are means ± SEMs of four replicate wells. The data shown in each panel are representative of three independent experiments.
Assays were performed as described before. After the indicated treatment, cells in 96-well dishes were solubilized and assayed for MTT dye reduction. Cell viability was expressed as the amount of dye reduction relative to untreated control cells. and calculated as means ± SEMs for 10 replicate wells.

[2] = biological target: T1, estrogen receptor-alpha (ER) (Homo sapiens, UniProt P03372); assay: constitutive ER activity, ERE-TK-Luc reporter, in anti-estrogen resistant LCC9 cells; format: cell-based; set-up: LCC9 cells in 24-well dishes were transfected overnight with the ERE-TK-Luc reporter plasmid; endogenous in cells; host or cells: LCC9; details: LCC9, no E2, 24 hr; read-out: IC50 for inhibition of ER activity in LCC9
T1 sequence (P03372 1-595): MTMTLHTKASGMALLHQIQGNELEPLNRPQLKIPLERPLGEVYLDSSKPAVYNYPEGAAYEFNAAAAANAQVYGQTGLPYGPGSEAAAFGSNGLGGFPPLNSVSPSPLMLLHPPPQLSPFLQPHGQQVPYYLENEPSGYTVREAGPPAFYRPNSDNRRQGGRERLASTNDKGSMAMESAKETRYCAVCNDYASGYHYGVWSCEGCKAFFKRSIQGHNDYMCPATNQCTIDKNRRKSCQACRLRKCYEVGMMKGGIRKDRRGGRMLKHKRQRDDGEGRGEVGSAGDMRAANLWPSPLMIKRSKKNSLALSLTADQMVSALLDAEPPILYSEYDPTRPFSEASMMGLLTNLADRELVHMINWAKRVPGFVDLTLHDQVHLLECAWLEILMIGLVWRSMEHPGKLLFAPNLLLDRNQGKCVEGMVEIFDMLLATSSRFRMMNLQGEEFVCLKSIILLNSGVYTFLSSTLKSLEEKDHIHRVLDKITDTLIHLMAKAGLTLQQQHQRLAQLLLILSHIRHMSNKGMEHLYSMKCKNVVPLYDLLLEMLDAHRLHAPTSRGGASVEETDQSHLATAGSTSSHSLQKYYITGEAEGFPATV
Experimental: (§1) For MCF-7, luciferase activity is expressed as a fold-change relative to the no E2 control. For LCC9, luciferase activity is expressed relative to the control without the reporter present. Values plotted are means ± SEMs of four replicate wells. The data shown in each panel are representative of three independent experiments.
The cells were then treated with the indicated concentrations of the six bioactive compounds or vehicle only (DMSO) for 24-hr and assayed for luciferase activity. Luciferase activity is expressed as a percentage of the DMSO control. Values are means ± SEMs of four replicate wells. The data shown in each panel are representative of three independent experiments.
The cells were then harvested for luciferase assays. Luciferase activity was expressed as a fold-change relative to the no reporter control. Values plotted are means ± SEMs of four replicate wells. The data shown are representative of three independent experiments.
(§2) Subconfluent cells in 24-well dishes were transfected overnight with 0.25 μg of each indicated vector plus the ERE-TK-Luc reporter in serum-free DMEM containing Lipofectamine2000 (Life Technologies, Washington, DC). Total transfected DNA was kept constant by addition of control vector. The cells were washed, incubated in phenol red-free DMEM containing 5% charcoal-stripped serum (obtained from the Tissue Culture Shared Resource) (0.2 ml/well) ± E2 (10 nM) ± the indicated compound for 24-hr, and harvested for luciferase assays. For each assay condition was tested in quadrupicate. To monitor the transfection efficiency, cultures were co-transfected with plasmid pRSV-β-gal (Promega, Madison, WI) to visualize transfected cells by X-gal staining.

[3] = biological target: T1, estrogen receptor-alpha (ER); assay: ER activity, ERE-TK-Luc reporter, in MCF-7 cells; format: cell-based; set-up: MCF-7 cells in 24-well dishes were transfected overnight with the ERE-TK-Luc reporter plasmid; endogenous in cells; host or cells: MCF-7; details: for IC50: read-out: IC50 for inhibition of E2-stimulated ER activity
Experimental: as §1
The cells were then treated ± 17β-estradiol (E2, 10 nM) and with the indicated compound (@ 1 μM or 20 μM) or vehicle only (DMSO) for 24 hr and assayed for luciferase activity. Luciferase activity is expressed as a fold-change relative to the no E2 control. The data shown are representative of three independent experiments.
as §2

LCC9 cells = assay: cell proliferation assay (cell counts days 1, 3, 5), LCC9; format: cell-based, human; details: DMEM + 5% charcoal-stripped serum, up to 5 days; 4631-P/1 at 1 μM
Experimental: Starting on day 1, cells were refed daily with fresh medium (DMEM plus 5% CSS) containing the indicated agent. In panel F, the cells were refed with medium also containing ER-siRNA or control-siRNA (100 nM) at the indicated times. Wells were counted on days 1, 3, and 5 to determine cell numbers. Values are means ± SEMs of triplicate wells. The data shown in each panel are representative of three independent experiments.
Assays were performed using as the growth medium phenol red-free DMEM containing 5% charcoal-stripped serum. Briefly, proliferating cells were harvested using trypsin, counted, inoculated into 12-well dishes at 1 × 10^4 cells per well on day 0 and allowed to attach and recover for 24 hr. The cells were then treated with the indicated agents for up to five days, with daily refeeding with fresh medium and agents. Triplicate wells were counted by Coulter Counter on days 1, 3, and 5. For experiments using siRNAs, cells were treated with the indicated siRNA (100 nM) starting on day -2, and fresh siRNA was added on days 0, 2, and 4.

LCC9 tumor xenografts = assay: LCC9 tumor xenograft growth in Balb/c nude mice; format: in vivo
Experimental: Figure 13 Compound NSC 35446 hydrochloride salt inhibits the growth of LCC9 breast cancer xenografts in athymic nude mice Experiments were performed as described in the Methods and Results sections. The effects of the compound administered intraperitoneally every other day at 5 mg/kg A., 10 mg/kg B., and 20 mg/kg C. are shown and compared with that of vehicle only (control, CT). Values of tumor volume are means ± SDs for N=5 mice per group. Athymic Balb/c nude mice were purchased from Charles River. Mice were housed 5 per cage with microisolater tops and provided food (Furina mice chow) and water ad libitum. The light cycle was regulated automatically (12 hours light/dark cycle) and temperature 23±1°C. Animals were allowed to acclimate to this environment for one week prior to usage. The Georgetown University Animal Care and Use Committee approved all animal studies in accordance with NIH guidelines. The stock solution of NSC 35446 hydrochloride was dissolved in DMSO at 200 mg/ml. The working solution was prepared using 10% Kolliphor ELP (Sigma-Aldrich), 3% PEG400 (Hampton Research, HR2-603); and 87% PBS to give a 1 mg/ml solution. Female Balb/c nude mice (18-22g) were injected with LCC9 cells (3 × 10^6 cells in a volume of 0.3 ml) in the subcutaneous tissue of the right axillary region. The mice were randomly sorted into groups with N=5 mice per group; and treatments were initiated when the tumors reached 150-200 mm^3. The tumor-bearing mice were given intraperitoneal injections of vehicle only (control), 5 mg/kg, 10 mg/kg, or 20 mg/kg of NSC 35446 hydrochloride every other day. The tumor size of each mouse was measured by caliper and calculated by the formula: length × width × width/2 and the body weight was recorded.

[4] = body weight and signs of acute toxicity in tumor-bearing Balb/c nude mice; format: in vivo; details: 5, 10 or 20 mg/kg intraperitoneally every other day, 21-day study interval
Experimental: For these studies we used LCC9 cells grown as subcutaneous tumors in Balb/c nude mice. To improve water solubility, the compound tested (NSC 35446) was prepared as the hydrochloride salt, as described in the Methods section. The mice were dosed intraperitoneally with vehicle (control) or NSC 35446 hydrochloride every other day at 5, 10, or 20 mg/kg. Treatments were initiated when the tumors reached 150-200 mm^3. […] For most time points except the earliest, differences in size between the treated and control tumors were significant (P < 0.05, ANOVA, Tukey's multiple comparison test). There appeared to be some delay in tumor growth at the 5 mg/kg dose; but by day 21, the treated tumors were approaching the control tumors in size. The T/C ratios (ie., ratios of the changes in volume of treated tumors to that of control tumors) on day-21 were: 0.77 (5 mg/kg), 0.24 (10 mg/kg), and 0.15 (20 mg/kg).
Athymic Balb/c nude mice were purchased from Charles River. Mice were housed 5 per cage with microisolater tops and provided food (Furina mice chow) and water ad libitum. The light cycle was regulated automatically (12 hours light/dark cycle) and temperature 23±1°C. Animals were allowed to acclimate to this environment for one week prior to usage. […] The tumor size of each mouse was measured by caliper and calculated by the formula: length × width × width/2 and the body weight was recorded.

[5] = MCF7, MCF-7, E2 10 nM, compound 1 μM, 24 hr, read-out: inhibition of E2-stimulated ER activity at 1 μM

CC(C)=CC1C(COC(=O)c2cc3c(cc2Cl)OCO3)C1(C)C (centres unmarked) [48693-K/1]
viability at 24 h, 1 µM [1]: 100%
viability at 24 h, 20 µM [1]: > 90%
IC50 [2]: 4000 nM
inhibition at 1 µM ([3]; MCF7, read-out: inhibition of E2-stimulated ER activity at 1 μM): ≥ 50%
IC50 ([3]; MCF-7, E2 10 nM, 24 hr): ≤ 1000 nM

Sc1ccc2ccccc2c1CNCc1ccccc1 [81747-N/1]
viability at 24 h, 1 µM [1]: 100%
viability at 24 h, 20 µM [1]: > 90%
IC50 [2]: 30000 nM
inhibition at 1 µM [3, 5]: ≥ 50%
IC50 ([3]; MCF-7, E2 10 nM, 24 hr): ≤ 1000 nM

c1ccc2c(c1)-c1ccccc1C2N1CC2CCC(CC2)C1 [88999-U/1]
IC50 [2]: ≤ 1000 nM
inhibition at 1 µM [3, 5]: ≥ 50%
IC50 ([3]; MCF-7, E2 10 nM, 24 hr): ≤ 1000 nM

OCC(CCc1c[nH]c2ccccc12)c1c[nH]c2ccccc12 (centres unmarked) [372127-T/1]
IC50 [2]: ≤ 1000 nM
IC50 ([3]; MCF-7, E2 10 nM, 24 hr): ≤ 1000 nM
inhibition of E2-stimulated ER activity at 1 μM ([3]; MCF-7, E2 10 nM, compound 1 μM, 24 hr): ≥ 50%

C[C@]12CC[C@@H]3c4ccc(O)cc4CC[C@H]3[C@@H]1CC[C@@H]2O [E2, 17β-estradiol, reference compound]
effect on LCC9 cell growth, single agent (LCC9 cells): Neither E2 nor Tam significantly altered growth of LCC9

O=C(CC(c1ccccc1)N1CCCCC1)c1ccccc1 (centres unmarked) [NSC 35446 hydrochloride, 1,3-diphenyl-3-(piperidin-1-yl)propan-1-one]
T/C ratio (change in volume of treated tumors to control tumors) on day-21 (LCC9 tumor xenografts; 5 mg/kg intraperitoneally every other day): 0.77
T/C ratio (change in volume of treated tumors to control tumors) on day-21 (LCC9 tumor xenografts; 10 mg/kg intraperitoneally every other day): 0.24
T/C ratio (change in volume of treated tumors to control tumors) on day-21 (LCC9 tumor xenografts; 20 mg/kg intraperitoneally every other day): 0.15
effect on LCC9 tumor growth (LCC9 tumor xenografts; intraperitoneally every other day, 21-day study): efficacious at the 10 mg/kg and 20 mg/kg doses in slowing tumor growth or causing tumor stasis
body weight and signs of acute toxicity [4]: No significant changes in body weight or obvious signs of acute toxicity

CC/C(=C(\c1ccccc1)c1ccc(OCCN(C)C)cc1)c1ccccc1 [Tam, Tamoxifen, reference compound]
effect on LCC9 cell growth, single agent (LCC9 cells): Neither E2 nor Tam significantly altered growth of LCC9
